Assays:
mouse spermatozoa = experiment: Measuring the [Ca2+]i in spermatozoa (Fluo-4 AM fluorescence); format: cell-based; settings: FIG. 1; for [Ca2+]i increases by (change in fluorescent intensity, (F'-F0)/F0): plateau phase 27-30 minutes
Procedure: Spermatozoa are prepared for measuring changes in the intracellular concentration of free calcium ions ([Ca^2]i). Modified HEPES medium (120 mM of NaCl, 2 mM of KCl, 1.2 mM of MgSO4.7H2O, 0.36 mM of NaH2PO4, 15 mM of NaHCO3, 10 mM of HEPES, 5.6 mM of glucose, 1.1 mM of sodium pyruvate, 18.5 mM of sucrose, 100 IU/ml of penicillin, and 100 μg/ml of streptomycin), spermatozoa culture medium, is pre-incubated in incubator with 5% CO2 at 37° C. for 24 hours before using to adjust the medium pH ranges between 7.3 and 7.4. The cauda epididymis is cut into several pieces, incubated in the medium at 37° C. for 20 minutes, put on 1 ml of 75% (v/v) Percoll solution, and centrifuged at 300×g for 30 minutes to isolate higher motility spermatozoa for [Ca^2+]i measurement experiment.
Changes in the [Ca^2+]i in uncapacitated spermatozoa are measured. Spermatozoa (1×10^8 cells per milliliter) is incubated in modified HEPES medium, containing 15 μM of Fluo-4 AM, in the darkness at 37° C. for 45 minutes. Fluo-4 AM is a fluorescent Ca^2+ indicator capable of penetrating cell membranes. Then, the spermatozoa are washed thrice by 100×g centrifugation at room temperature for 5 minutes to remove the residual dye. The sperm cell pellet is suspended in a modified HEPES medium, containing 1.8 mM of CaCl2, and the cell concentration is adjusted to 5×10^6 cells per milliliter. […] The changes of fluorescent intensity are measured with the Synergy H1 Hybrid Multi-Mode Microplate Reader (Bio-Tek, Winooski, Vt., USA) at 37° C. via an excitation wavelength of 485 nm and an emission wavelength of 520 nm. […] Changes in [Ca^2+]i are calculated with the equation (F′−F0)/F0 (%), wherein F′ denotes the fluorescent intensity measured at different time points during the experiment, and F0 denotes the average of fluorescent intensity measured 0 to 5 minutes before adding kisspeptin-10. Last but not least, the average change in the fluorescent intensity during the plateau phase (27˜30 minutes) of [Ca^2+]i is calculated.

spermatozoa = experiment: IVF test (in vitro fertilization, success fertilization rate); format: cell-based, mouse; settings: spermatozoa incubated with 50 μM during capacitation, 2 hours, 37° C.; control group larger than 80%; binds KISS1R; FIG. 2
Procedure: In the in vitro fertilization experiment, spermatozoa isolated from cauda epididymis are incubated in HTF (human tubal fluid) medium (Merck Millipore) at 37° C. for 20 minutes and then diluted the cell concentration to 1×10^6 spermatozoa per milliliter.
The uncapacitated spermatozoa is incubated in HTF medium and then treated with peptide 234 during capacitation step, such that kisspeptin signal effects on final fertilization step is evaluated. The 0.9% saline is added to the control group to substitute for the peptide 234 solution. In detail, spermatozoa (1×10^6 cell per milliliter) are incubated in a capacitation-condition medium with 50 μM peptide 234 or saline at 37° C. for 2 hours. Then, the fertilization process begins with the introduction of cumulus-oocyte complexes (COCs) into the culture medium and incubation at 37° C. for 6 hours. The oocytes are washed thrice and incubated in KSOM+AAs culture medium (potassium simplex optimized medium plus amino acids, Merk Millipore) for 24 hours. The success fertilization rate is calculated according to the ratio of the number of two-cell embryos to the total number of oocytes. […]

## kisspeptin 10: short-chain peptide kisspeptin-10 (SEQ ID NO:6), rodent expressed kisspeptin, purchased from Kelowna international Scientific (YNWNSFGLRY; Rodent expressed kisspeptin-10)
Mouse spermatozoa; mouse spermatozoa treated with 50 μM
  [Ca2+]i increases by (change in fluorescent intensity, (F'-F0)/F0): 85.5±14.4%
Mouse spermatozoa; mouse spermatozoa treated with 100 μM
  [Ca2+]i increases by (change in fluorescent intensity, (F'-F0)/F0): 129.9±24.9%
Mouse spermatozoa; mouse spermatozoa treated with 25, 50 and 100 μM
  [Ca2+]i change (fluorescent intensity), in words: increases

## peptide 234: kisspeptin antagonist peptide 234 (SEQ ID NO:10), binds to KISS1R on the spermatozoa (ANWNGFGWRF; Kisspeptin antagonist peptide 234)
spermatozoa
  success fertilization rate (two-cell embryos / total oocytes): less than 60%
